Source: article PMC8780658 (Pharmaceutics, 2021)
Where a SMILES comes first, the peptide text is derived from it. The star is where a group is joined. Doxorubicin(3'-N) = COc1cccc2c1C(=O)c1c(O)c3c(c(O)c1C2=O)C[C@@](O)(C(=O)CO)C[C@@H]3O[C@H]1C[C@H](N*)[C@H](O)[C@H](C)O1; Propanoyl(3-maleimido) = O=C1C=CC(=O)N1CCC(=O)*; PEG2 = NCCOCCOCCC(=O)O

Key:
MDA-MB231 cells = test: Cellular uptake, confocal fluorescence imaging; format: cell-based, human; settings: 2 µM, 48 h, 37 °C, CLSM
Procedure: (§1) To assess intracellular behavior of Al-ProD via fluorescence imaging, 3 × 10^5 MDA-MB231 and H9C2 cells were seeded in confocal dishes. […] As a control, MDA-MB231 cells were pre-incubated for 2 h with cathepsin B-inhibitory siRNA that was pre-incubated with Lipofectamine 2000 for 40 min at room temperature. Then, cells were washed twice with DPBS, fixed with 5% paraformaldehyde for 15 min, and stained with 4′,6-diamidino-2-phenylindole (DAPI) for 10 min. Fluorescence imaging was performed using a Leica TCS SP8 confocal laser-scanning microscope (Leica Microsystems GmbH; Wetzlar, Germany). The DOX fluorescence in images was quantitatively analyzed using an Image Pro software (Media Cybernetic, Rockville, MD, USA).

H9C2 cells = test: Cellular uptake, confocal fluorescence imaging; format: cell-based, rat; settings: 2 µM, 48 h, 37 °C, CLSM
Procedure: as §1

[1] = Pharmacokinetics after intravenous injection; format: in vivo; settings: BALB/c nude mice, i.v.
Procedure: Mice were bred under pathogen-free conditions at the Korea Institute of Science and Technology (KIST). All experiments with live animals were performed in compliance with the relevant laws and institutional guidelines of Institutional Animal Care and Use Committee (IACUC) in Korea Institute of Science and Technology (KIST), and IACUC approved the experiment (approved number of 2020-123). […] Then, each drug in the blood samples was extracted with DMSO by intense vortex and the samples were centrifuged at 2000 rpm for 40 min to obtain as a blood plasma. Finally, amount of free DOX and Al-ProD in samples was analyzed by IVIS Lumina Series III system (PerkinElmer; Waltham, MA, USA).

MDA-MB231 tumor [2] = test: Antitumor efficacy in MDA-MB231 tumor-bearing mice; format: in vivo, BALB/c nude mice; settings: 3 mg/kg based on DOX contents, once every three days; saline group 1810.98 ± 544.56 mm^3
Procedure: (§2) Antitumor efficacy was assessed by measuring tumor volumes once every two days, calculated as largest diameter × smallest diameter^2 × 0.53, once every 2 days. The body weights of mice were also measured once every two days to assess in vivo toxicity. The in vivo toxicity of Al-ProD was further assessed by histological analyses. At 20 days after treatment, major organs were collected from mice and samples were stained with H&E following the manufacturer’s protocol. Then, organ sections were observed using an optical microscope.

MDA-MB231 tumor [3] = test: Biodistribution in breast tumor models (NIRF imaging)
Procedure: The biodistribution of Al-ProD was assessed in breast tumor models, which were prepared by subcutaneous inoculation of 1 × 10^7 MBA-MB231 cells into the left flank of BALB/c nude mice. […] Then, noninvasive near-infrared fluorescence (NIRF) imaging was performed using an IVIS Lumina Series III system after 0 h, 3 h, 6 h, 12 h, 24 h, 48 h, and 72 h of injection. Fluorescence intensities in tumor regions were quantified via Living Image software. Mice were sacrificed after 12 h of injection for ex vivo imaging, followed by the collection of lung, liver, kidney, spleen, heart, and tumor tissues. Tumor tissues were also cut into 10 µm thick sections for histological assays. Slide-mounted tumor sections were analyzed by Leica TCS SP8 confocal laser-scanning microscope.

[4] = molecular target: T1, mouse serum albumin (MSA) (Mus musculus, UniProt P07724); test: Albumin binding of Al-ProD, SDS-PAGE band shift; settings: 100 µM compound, 700 µM albumin in PBS pH 7.4, room temperature, 1 h; native 12% SDS-PAGE, trans-UV; unbound band below 7 kDa
T1 construct: purchased Sigma Aldrich
Procedure: (§3) The albumin-binding property of Al-ProD was firstly evaluated. Briefly, to a human serum albumin (HSA), mouse serum albumin (MSA), or bovine serum albumin (BSA; 700 µM in PBS; pH 7.4), Al-ProD (100 µM) was added and incubated for 0, 5, and 60 min at room temperature. As a control, the HSA solution was pre-incubated with γ-maleimidobutyric acid for 1 h before adding Al-ProD. After incubation, samples were analyzed via native 12% SDS-PAGE gel. The gels were observed by trans-UV using the iBright^TM Imaging System (Invitrogen by Thermo Fisher Scientiric), and then stained with coomassie blue for visualizing proteins. The albumin-binding property of Al-ProD was further analyzed using reverse-phased high performance liquid chromatography (RP-HPLC; […]; Agilent Technologies) with ACN/H2O gradient from 80:20 to 20:80 for 30 min under a fluorescence detector (Ex/Em: 530/590 nm). […] Next, cathepsin B-specific cleavage of Al-ProD that was pre-incubated with HSA for 5 min (HSA-bound Al-ProD; 10 µM) was assessed by incubating with cathepsin B, cathepsin E, cathepsin D, cathepsin L, caspase-9, or caspase-3 (50 µg) at 37 °C for 24 h, followed by an analysis using HPLC with ACN/H2O gradient from 20:80 to 80:20 for 30 min.

[5] = molecular target: T2, bovine serum albumin (BSA) (Bos taurus, UniProt P02769); test: Albumin binding of Al-ProD, SDS-PAGE band shift; settings: 100 µM compound, 700 µM albumin in PBS pH 7.4, room temperature, 1 h; native 12% SDS-PAGE, trans-UV; unbound band below 7 kDa
T2 construct: purchased Sigma Aldrich
Procedure: as §3

[6] = In vivo toxicity evaluation in MDA-MB231 tumor-bearing mice
Procedure: as §2

[7] = 3 mg/kg based on DOX contents, once every three days
[8] = 12 h after i.v. injection, 3 mg/kg based on DOX contents

T1 sequence (P07724 25-608): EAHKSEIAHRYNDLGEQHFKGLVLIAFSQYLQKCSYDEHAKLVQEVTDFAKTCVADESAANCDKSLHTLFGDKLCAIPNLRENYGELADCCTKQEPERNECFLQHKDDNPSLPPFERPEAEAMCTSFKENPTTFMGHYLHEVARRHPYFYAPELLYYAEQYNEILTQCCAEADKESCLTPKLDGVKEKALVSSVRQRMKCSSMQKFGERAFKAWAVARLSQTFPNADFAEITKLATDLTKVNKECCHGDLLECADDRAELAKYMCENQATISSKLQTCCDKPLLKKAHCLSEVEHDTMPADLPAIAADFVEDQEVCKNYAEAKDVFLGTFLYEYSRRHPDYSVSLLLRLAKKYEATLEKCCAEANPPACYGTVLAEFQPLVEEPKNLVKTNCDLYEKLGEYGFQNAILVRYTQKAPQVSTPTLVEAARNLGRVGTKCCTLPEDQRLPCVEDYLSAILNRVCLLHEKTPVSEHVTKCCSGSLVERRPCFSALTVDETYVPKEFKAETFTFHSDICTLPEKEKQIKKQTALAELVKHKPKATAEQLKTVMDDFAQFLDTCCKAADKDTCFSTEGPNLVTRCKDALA
T2 sequence (P02769 25-607): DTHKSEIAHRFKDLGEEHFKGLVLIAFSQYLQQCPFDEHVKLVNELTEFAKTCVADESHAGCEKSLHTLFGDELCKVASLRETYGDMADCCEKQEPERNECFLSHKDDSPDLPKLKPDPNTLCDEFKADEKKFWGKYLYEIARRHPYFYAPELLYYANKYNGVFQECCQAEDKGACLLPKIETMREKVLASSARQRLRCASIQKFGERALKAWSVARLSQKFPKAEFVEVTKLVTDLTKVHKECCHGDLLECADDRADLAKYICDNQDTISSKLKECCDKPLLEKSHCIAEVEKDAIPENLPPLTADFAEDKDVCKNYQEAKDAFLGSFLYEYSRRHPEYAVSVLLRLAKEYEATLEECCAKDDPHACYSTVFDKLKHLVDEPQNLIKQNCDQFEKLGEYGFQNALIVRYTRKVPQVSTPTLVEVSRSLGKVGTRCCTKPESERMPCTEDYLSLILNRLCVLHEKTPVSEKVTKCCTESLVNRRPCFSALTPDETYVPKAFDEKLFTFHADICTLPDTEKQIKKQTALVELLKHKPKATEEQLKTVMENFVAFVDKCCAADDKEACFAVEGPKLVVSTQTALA

SMILES | Intracellular location of DOX fluorescence in MDA-MB231 cells (MDA-MB231 cells) | Intracellular location of DOX fluorescence in H9C2 cells (H9C2 cells) | In vivo half-life, T1/2 ([1]; 3 mg/kg based on DOX contents, plasma fluorescence by IVIS) | In vivo half-life ([1]; 3 mg/kg, plasma fluorescence by IVIS) | Tumor volume on day 20 after treatment (MDA-MB231 tumor [2]) | Course of DOX fluorescence in tumor tissues (MDA-MB231 tumor [3]; mouse, in vivo, iv, 3 mg/kg) | DOX fluorescence in whole tumor tissue sections (histology) (MDA-MB231 tumor [3]; mouse, in vivo, iv, 3 mg/kg) | Band in SDS-PAGE gel after incubation with MSA (albumin binding) [4] | Band in SDS-PAGE gel after incubation with BSA (albumin binding) [5] | Mice survival during treatment [6, 7] | Median survival ([6]; 3 mg/kg once every three days, saline group 20 days) | Normal organs stained with H&E ([6]; mouse, in vivo) | AUC increase compared with free DOX ([1]; 3 mg/kg based on DOX contents) | Time for which a detectable amount remained in the body ([1]; 3 mg/kg based on DOX contents) | DOX fluorescence from tumor tissues relative to free DOX, NIRF imaging (MDA-MB231 tumor [3]; [8]) | DOX fluorescence in tumor tissues relative to free DOX group, ex vivo imaging (MDA-MB231 tumor [3]; [8]) | DOX fluorescence in whole tumor tissue sections (histology) (MDA-MB231 tumor [3]; 12 h after i.v. injection, 3 mg/kg based on DOX contents, confocal microscopy) | Time for which DOX fluorescence was retained in tumor tissues (MDA-MB231 tumor [3]; NIRF imaging, i.v., 3 mg/kg based on DOX contents) | Body weights during treatment [6, 7] | Normal organs stained with H&E ([6]; day 20 after treatment)
COc1cccc2c1C(=O)c1c(O)c3c(c(O)c1C2=O)C[C@@](O)(C(=O)CO)C[C@@H]3O[C@H]1C[C@H](N)[C@H](O)[C@H](C)O1 [free DOX, doxorubicin] | clearly observed at the nuclei | clearly observed at the nuclei | 15 min | 15 min | 580.25 ± 139.92 mm^3 | rapidly decreased for 6 h | only a small quantity | not bound | not bound | ≤ 18 days | 16 days | structural abnormalities |  |  |  |  |  |  |  | 
COc1cccc2c1C(=O)c1c(O)c3c(c(O)c1C2=O)C[C@@](O)(C(=O)CO)C[C@@H]3O[C@H]1C[C@H](NC(=O)CNC(=O)[C@H](CCCNC(=N)N)NC(=O)[C@H](CCCNC(=N)N)NC(=O)[C@H](Cc2ccccc2)NC(=O)CCOCCOCCNC(=O)CCN2C(=O)C=CC2=O)[C@H](O)[C@H](C)O1 [Al-ProD, maleimide-PEG2-FRRG-DOX] ({Propanoyl(3-maleimido)-PEG2}-FRRG-{Doxorubicin(3'-N)}) |  |  |  |  |  |  |  |  |  | over 25 days |  |  | approximately sevenfold | 144 h | 3.33–4.08 fold | 3.41–4.92 fold | strong DOX fluorescence | 72 h | no significant body weight loss | negligible toxicity
